This note sets out measurements from patent US20260317314A1, “NITROGEN-CONTAINING HETEROCYCLIC COMPOUND AND USE THEREOF” (JIANGSU DEYUAN PHARMACEUTICAL CO.,LTD., priority 2023, published 2026).

A short description of data set [1]: Permeability test in MDR1-MDCKII monolayer cell model. The settings on record: dog. The format is in vitro ADME. In outline: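 Bidirectional transport of 2 μM compound across 4–7-day MDR1-MDCKII monolayers in HBSS with 10 mM HEPES pH 7.40, DMSO below 1%, 2.5 h at 37 °C. Quantified by LC-MS/MS. Papp calculated from receiver accumulation; efflux ratio = Papp(B-A)/Papp(A-B).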

A further data set addresses T1, CYP2C19 (Homo sapiens, UniProt P33261).
T1 construct: Mixed human liver microsomes (HLM) were purchased from Corning Inc; tissue Corning Inc; host or cells: mixed human liver microsomes (HLM)
In words: Human liver microsome CYP inhibition assay, CYP2C19. The format is in vitro ADME. The note with it: role: inhibitor; human liver microsomes, probe substrate; read-out: CYP2C19 half maximal inhibitory concentration IC50. How it is done: (§1) Experimental objective: To evaluate the inhibitory activity of the test substance on human liver microsomal cytochrome P450 isoenzymes (CYP1A2, CYP2C9, CYP2C19, CYP2D6, CYP3A4) using a 5-in-1 probe substrate for CYP isoenzymes.
(§2) Mixed human liver microsomes (HLM) were purchased from Corning Inc. (Steuben, New York, USA) and stored at temperatures below −70° C. prior to use.
(§3) The working solution of the test substance, which had been diluted to a series of concentrations, was added to an incubation system containing human liver microsomes, probe substrates, and auxiliary factors of the circulatory system. A control containing solvent but no test substance served as an enzyme activity control (100%). The concentration of metabolites produced from probe substrates in the samples was determined using Liquid Chromatography-Tandem Mass Spectrometry (LC-MS/MS) method. Non-linear regression analysis of the average percentage activity of the test substance against its concentration was conducted using SigmaPlot (V.11). The IC50 values were calculated using a three-parameter or four-parameter inverse log equation.
In general terms: Liver microsomes are a subcellular fraction often used to study metabolism.

Data set [2] can be described thus: Plasma protein binding rate test, human (equilibrium dialysis). It counts as in vitro ADME. The note with it: 37° C. An excerpt: The sample was thoroughly mixed.
In general terms: In equilibrium dialysis only unbound substance equilibrates across the membrane.

The nature of data set [3]: In vivo pharmacokinetic study in cynomolgus monkeys. More on the design: species or system cynomolgus monkey. The note with it: cynomolgus monkey, plasma, male cynomolgus monkeys, oral 1 mg/kg.
In another data set the target is T2, CYP3A4 (Homo sapiens, UniProt P08684).
T2 construct: Mixed human liver microsomes (HLM) were purchased from Corning Inc; tissue Corning Inc; host or cells: mixed human liver microsomes (HLM)
In words: Human liver microsome CYP inhibition assay, CYP3A4. The format is in vitro ADME. The settings on record: role: inhibitor; human liver microsomes, probe substrate; read-out: CYP3A4 half maximal inhibitory concentration IC50. Here is the method:
as §1, §2, §3

A further data set concerns the target T3, CYP2D6 (Homo sapiens, UniProt P10635).
T3 construct: Mixed human liver microsomes (HLM) were purchased from Corning Inc; tissue Corning Inc; host or cells: mixed human liver microsomes (HLM)
The data set is described as follows: Human liver microsome CYP inhibition assay, CYP2D6. It counts as in vitro ADME. The settings on record: role: inhibitor; human liver microsomes, probe substrate; read-out: CYP2D6 half maximal inhibitory concentration IC50. Here is the method:
as §1, §2, §3

A further data set concerns the target T4, CYP1A2 (Homo sapiens, UniProt P05177).
T4 construct: Mixed human liver microsomes (HLM) were purchased from Corning Inc; tissue Corning Inc; host or cells: mixed human liver microsomes (HLM)
T4 sequence (P05177 1-516): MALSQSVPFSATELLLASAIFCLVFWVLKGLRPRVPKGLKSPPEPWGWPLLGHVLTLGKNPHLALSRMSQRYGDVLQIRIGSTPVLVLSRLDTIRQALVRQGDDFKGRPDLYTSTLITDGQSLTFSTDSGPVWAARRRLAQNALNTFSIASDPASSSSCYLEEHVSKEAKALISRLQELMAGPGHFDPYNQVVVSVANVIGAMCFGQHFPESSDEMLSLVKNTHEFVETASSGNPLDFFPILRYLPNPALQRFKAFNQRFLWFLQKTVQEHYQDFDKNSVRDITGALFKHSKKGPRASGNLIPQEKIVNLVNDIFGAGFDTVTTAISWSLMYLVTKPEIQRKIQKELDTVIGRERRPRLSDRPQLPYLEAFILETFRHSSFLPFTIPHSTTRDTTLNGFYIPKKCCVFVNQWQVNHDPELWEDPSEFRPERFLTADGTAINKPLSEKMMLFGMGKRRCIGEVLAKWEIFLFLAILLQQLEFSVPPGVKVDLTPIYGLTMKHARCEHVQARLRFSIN
In words: Human liver microsome CYP inhibition assay, CYP1A2. The note with it: role: inhibitor; human liver microsomes, probe substrate; read-out: CYP1A2 half maximal inhibitory concentration IC50. It counts as in vitro ADME. How it is done: as §1, §2, §3

A further data set addresses T5, CYP2C9 (Homo sapiens, UniProt P11712).
T5 construct: Mixed human liver microsomes (HLM) were purchased from Corning Inc; tissue Corning Inc; host or cells: mixed human liver microsomes (HLM)
In words: Human liver microsome CYP inhibition assay, CYP2C9. The format is in vitro ADME. The note with it: role: inhibitor; human liver microsomes, probe substrate; read-out: CYP2C9 half maximal inhibitory concentration IC50. Here is the method:
as §1, §2, §3

The nature of data set [4]: In vitro liver microsome metabolic stability study. The format is in vitro ADME. The note with it: human liver microsomes 0.5 mg/mL, compound 1 μM, 37° C., up to 60 minutes; read-out: Intrinsic hepatic clearance CLint(liver). How it is done: Stock solution: 10 mM in DMSO.
Only 54 μL of microsomal working solution, 6 μL of NADPH regeneration system working solution, and 180 μL of stop solution were added to the blank plate.
LC-MS/MS analysis was performed.

Molecules are shown by their SMILES. Bounds are passed on as bounds.

T1 sequence (P33261 whole entry): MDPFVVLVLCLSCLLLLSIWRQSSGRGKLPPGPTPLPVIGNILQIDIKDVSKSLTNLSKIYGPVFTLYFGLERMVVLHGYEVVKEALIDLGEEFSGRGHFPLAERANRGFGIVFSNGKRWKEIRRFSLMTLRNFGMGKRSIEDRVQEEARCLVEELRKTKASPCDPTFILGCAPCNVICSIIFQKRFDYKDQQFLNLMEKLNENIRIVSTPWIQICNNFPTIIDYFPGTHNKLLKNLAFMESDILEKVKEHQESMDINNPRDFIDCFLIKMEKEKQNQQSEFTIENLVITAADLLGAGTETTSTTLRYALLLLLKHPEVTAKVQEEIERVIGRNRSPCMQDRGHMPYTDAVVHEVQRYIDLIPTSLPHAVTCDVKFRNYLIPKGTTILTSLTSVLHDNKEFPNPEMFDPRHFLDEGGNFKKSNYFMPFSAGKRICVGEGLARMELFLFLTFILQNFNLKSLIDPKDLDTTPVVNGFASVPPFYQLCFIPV
T5 sequence (P11712 whole entry): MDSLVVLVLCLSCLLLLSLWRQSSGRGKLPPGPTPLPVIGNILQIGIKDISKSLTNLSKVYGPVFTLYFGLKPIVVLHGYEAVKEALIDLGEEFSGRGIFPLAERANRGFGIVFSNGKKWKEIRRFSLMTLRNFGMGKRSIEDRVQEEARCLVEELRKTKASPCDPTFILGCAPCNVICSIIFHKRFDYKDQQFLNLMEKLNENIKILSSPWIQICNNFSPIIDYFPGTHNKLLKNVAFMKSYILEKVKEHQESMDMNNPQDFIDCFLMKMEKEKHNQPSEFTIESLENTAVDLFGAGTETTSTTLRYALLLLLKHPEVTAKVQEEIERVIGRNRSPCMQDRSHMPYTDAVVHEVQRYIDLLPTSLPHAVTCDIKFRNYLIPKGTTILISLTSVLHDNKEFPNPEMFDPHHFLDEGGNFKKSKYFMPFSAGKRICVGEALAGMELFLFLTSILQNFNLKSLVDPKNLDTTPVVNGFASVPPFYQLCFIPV
T2 sequence (P08684 whole entry): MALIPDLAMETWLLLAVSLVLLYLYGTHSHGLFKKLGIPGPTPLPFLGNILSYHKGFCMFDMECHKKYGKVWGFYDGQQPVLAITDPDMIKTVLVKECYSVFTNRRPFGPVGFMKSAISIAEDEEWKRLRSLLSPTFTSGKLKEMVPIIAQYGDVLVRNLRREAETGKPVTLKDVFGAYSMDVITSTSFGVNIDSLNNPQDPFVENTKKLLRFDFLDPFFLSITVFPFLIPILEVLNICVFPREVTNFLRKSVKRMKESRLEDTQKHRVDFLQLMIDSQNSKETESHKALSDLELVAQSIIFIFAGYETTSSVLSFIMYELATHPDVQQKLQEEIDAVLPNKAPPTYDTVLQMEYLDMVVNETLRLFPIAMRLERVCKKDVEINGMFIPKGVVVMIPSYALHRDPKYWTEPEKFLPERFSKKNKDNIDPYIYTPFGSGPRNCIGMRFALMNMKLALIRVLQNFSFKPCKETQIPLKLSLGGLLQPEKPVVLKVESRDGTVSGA
T3 sequence (P10635 whole entry): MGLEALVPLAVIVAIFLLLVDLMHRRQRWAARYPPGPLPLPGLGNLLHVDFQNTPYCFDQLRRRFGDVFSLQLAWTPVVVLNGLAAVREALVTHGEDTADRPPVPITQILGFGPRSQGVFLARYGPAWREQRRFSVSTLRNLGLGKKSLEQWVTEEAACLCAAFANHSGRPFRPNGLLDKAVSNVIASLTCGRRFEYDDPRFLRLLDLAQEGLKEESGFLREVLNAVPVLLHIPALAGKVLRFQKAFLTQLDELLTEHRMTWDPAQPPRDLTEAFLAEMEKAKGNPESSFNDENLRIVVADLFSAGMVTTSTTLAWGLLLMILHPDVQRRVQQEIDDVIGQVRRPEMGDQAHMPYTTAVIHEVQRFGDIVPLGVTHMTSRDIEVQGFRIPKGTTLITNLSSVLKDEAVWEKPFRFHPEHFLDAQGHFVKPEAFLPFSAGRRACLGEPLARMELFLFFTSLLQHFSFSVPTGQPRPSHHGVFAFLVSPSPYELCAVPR

What is called efflux ratio is the permeability from basolateral to apical divided by that in the opposite direction, in the common usage. As usually defined, the fraction unbound is the share of the substance not bound to proteins or other matrix. In general, bioavailability refers to dose-corrected exposure relative to a reference, in per cent. The half-life is how long it takes for the measured level to halve. In general, Cmax refers to the highest concentration seen after dosing. With `CCC(=O)N[C@H]1CCOc2c(-c3ccc4c(c3)CCC(=O)N4C)cncc21` (single isomer, unassigned) [Compound 037], in data set [1] (MDCK-MDR1, pH 7.4, ER=Papp(BA)/Papp(AB)), the efflux ratio at 2.5 h, 2 µM was found to be 1.88. The Papp A→B at 2.5 h, 2 µM in data set [1] (MDCK-MDR1, pH 7.4, pH 7.40, 2.5 hours, 37±1° C., read-out: Apparent permeability coefficient (Papp (AB))) was 10.7 ×10⁻⁶ cm/s. Further, the IC50 on CYP2C19, on CYP3A4, at CYP2D6, at CYP1A2 and at CYP2C9 was above 50 µM throughout. Also, in data set [2], the fraction unbound at 4 h was 0.354. This compound registered a bioavailability in data set [3] of 67%. The half-life in [3] is 5.75 h. This compound also gave a Cmax in [3] of 1320 nM. Moreover, the AUC(0-t) at 24 h in data set [3] (read-out: AUC0-24 h) stood at 10 µM·h. For the same compound, in [4], the CLint scaled at 1 µM is below 8.6 mL/min/kg.
